Assays:
HCT116 (colon) xenograft = format: in vivo; details: oral gavage once every day for 21 days, vs vehicle treated control
Description: Experiments were carried out using 6-8 week old female athymic SCID (Severe Combined Immune Deficient) mice. The mice were housed in Individually Ventilated Cages (IVC) at constant temperature (22±3° C.) and humidity (50±20%). They had free access to food and water. Tumors were obtained from ATCC, USA and maintained in vivo by subcutaneous (s.c.) passage of tumor fragments (appx 30 mg) in healthy mice according to standard reported procedures. All the animal protocols were approved by the Institutional Animal Ethics Committee, ORLL, Chennai. Each experimental group included 6-8 mice bearing s.c. tumors. Tumors were implanted into the axillary region by puncturing using a Trocar, and tumor growth was monitored by measurement of tumor diameters with a Vernier caliper. Tumor Volume (TV) was calculated according to the following formula: TV(mm^3)=L×W^2×0.5, […]
Test compound was administered by oral gavage in a volume of 5-10 ml/kg. […] Tumor size was measured twice every week and body weight was recorded daily prior to dosing.
Test compound (T) efficacy was assessed by calculating several parameters based on tumor volume (TV) with respect to untreated control (C). Parameters routinely assessed were T/C % [TVtest/TVcontrol×100] and Tumor Volume Inhibition (TVI=1−T/C %). […]
Toxic effects of drug treatment were assessed by Body Weight Loss %. […]

p21 = p21 induction, sandwich ELISA in HCT116 lysate; format: cell-based; details: HCT116, 18 hours
Description: (§1) Acetylated histone (H3), acetylated Tubulin and p21 levels were detected in cell lysate by sandwich ELISA method (Cell Signaling Technology, USA, Cat No: 7232, 7204 & 7167 respectively) by following manufacturer's instructions. Briefly, colon cancer cells (HCT116. 10,000/well) were incubated with test compound (1 and 10 μM) or medium (control) for 4 hours at 37° C. in CO2 incubator. The incubation lasted 18 hours for p21 induction. After incubation, cell lysates were prepared in cell lysis buffer by sonication on ice. The lysates were collected after centrifugation and subjected to ELISA test procedure. 100 μL of each diluted cell lysate in dilution buffer (1:1) was added to appropriate capture antibody coated microwells and incubated overnight at 4° C. After washing, 100 μL of detection antibody was added for 1 hour at 37° C. After second washing, 100 μL of HRP-linked secondary antibody was added for 30 min at 37° C. Finally, after appropriate washing, 100 μL of TMB substrate was added for 10 min at 37° C. followed by 100 μL of stop solution. The absorbance of individual wells was read using a spectrophotometer at 450 nm (A450).

[1] = system: HDAC (Mouse Liver Extract); assay: HDAC inhibition assay using Boc-Lys(Ac)-AMC substrate; format: biochemical; details: mouse liver enzyme
How it was run: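 Released AMC measured at 360 nm excitation, 460 nm emission after 15-30 min trypsin development at 37° C. Preceding deacetylation: mouse liver extract with acetylated-lysine AMC substrate, 30 min at 37° C after 5-min preincubation; blanks were buffer alone and substrate alone.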

recombinant HDAC1 enzyme = recombinant HDAC1 enzyme (Homo sapiens (Human), UniProt Q13547); assay: HDAC1 inhibitory activity (isoform selectivity); format: biochemical; details: read-out: HDAC1 inhibition (IC50)
Chain of recombinant HDAC1 enzyme (Q13547 whole entry, canonical isoform): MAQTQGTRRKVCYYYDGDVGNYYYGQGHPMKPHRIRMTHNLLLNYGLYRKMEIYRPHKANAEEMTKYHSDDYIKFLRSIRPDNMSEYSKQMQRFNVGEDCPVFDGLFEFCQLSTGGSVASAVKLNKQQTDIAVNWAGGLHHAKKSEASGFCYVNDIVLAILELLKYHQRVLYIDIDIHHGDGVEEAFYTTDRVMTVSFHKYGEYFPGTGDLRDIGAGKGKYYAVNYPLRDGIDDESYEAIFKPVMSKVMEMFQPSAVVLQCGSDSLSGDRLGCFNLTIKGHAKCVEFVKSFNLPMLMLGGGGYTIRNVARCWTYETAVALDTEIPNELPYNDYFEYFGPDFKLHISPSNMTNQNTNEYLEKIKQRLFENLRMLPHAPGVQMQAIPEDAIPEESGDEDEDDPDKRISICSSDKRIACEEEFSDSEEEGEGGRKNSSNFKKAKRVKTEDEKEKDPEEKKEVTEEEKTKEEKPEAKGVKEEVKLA
Description: The assay was carried out, as previously described using recombinant HDAC1 enzyme (BIOMOL, USA) and following manufacturer's instructions.

NCIH460 (lung) cells = assay: Anti-cancer screen (MTT), NCIH460; format: cell-based; details: Homo sapiens, NCI-H460, NCIH460, 48 hours, MTT
How it was run: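 Five-point MTT cytotoxicity test with 48 h compound exposure (final 0.01–100 μM, triplicate) in DMEM with 10% FBS, using a T0 viability plate and SAHA as reference standard.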

Acetylated histone (H3) = assay: Histone (H3) acetylation, sandwich ELISA in HCT116 lysate; format: cell-based; details: HCT116, 4 hours
Description: as §1

## COc1ccc(/C=C(/C(=O)NCc2ccc(C(=O)Nc3ccccc3N)cc2)c2ccc(F)cc2)cc1OC [Compound 19, N-(2-Aminophenyl)-4-((3-(3,4-dimethoxyphenyl)-2-(4-fluorophenyl)acrylamido)methyl)benzamide]
HCT116 (colon) xenograft
  maximum Tumor Volume Inhibition (TVI): 42%
p21; 1 μM
  P21 induction (Fold increase): 1.6 Fold increase
p21; 10 μM
  P21 induction (Fold increase): 2.4 Fold increase
[1]; 1 μM
  HDAC inhibition % (1 μM): 29.7%
[1]; 10 μM
  HDAC inhibition % (10 μM): 52.9%
[1]
  IC50: 8.6 µM
Recombinant HDAC1 enzyme
  IC50: 0.042 µM
NCIH460 (lung) cells; read-out: Cell growth inhibition NCIH460 (Lung) GI50
  GI50: 2.5 µM
NCIH460 (lung) cells; read-out: Cell growth inhibition NCIH460 (Lung) LC50
  LC50: 70 µM
NCIH460 (lung) cells; read-out: Cell growth inhibition NCIH460 (Lung) TGI
  IC (TGI): 8 µM
Acetylated histone (H3); 1 μM
  H3 acetylation (Fold increase): 4 Fold increase
Acetylated histone (H3); 10 μM
  H3 acetylation (Fold increase): 16 Fold increase
